How the values were obtained:
M. catarrhalis TW1 = assay: Deferred antagonism assay, producer S. salivarius M18; format: cell-based
Method: 1-2 producer strain colonies were transferred from a stock plate into 900 μL of suspension solution using a fresh cotton swab. Following this, suspensions were vortexed, and a sample was inoculated onto solid culture media using a fresh cotton swab. The inoculation was a streak that runs diametrically across the agar plate in a 1.5 cm wide strip. The plate was then incubated. Following incubation all visible colonies were removed by swabbing them from the agar surface. The plates were then treated with chloroform by dispensing 2 ml of chloroform onto 4 cm×4 cm piece of cloth and sealing the inverted agar plate on top for 30 minutes. The plates were then air dried for 30 minutes following chloroforming. 1-2 indicator strain colonies were then transferred from a stock plate into complementary suspension solution. The suspensions were then vortexed, and a sample was inoculated onto the same agar surface. These samples were streaked in a perpendicular direction to the initial producer streak.
Each indicator streak was prepared with fresh a suspension containing cells from a corresponding stock plate containing the indicator strain of interest. Indicator strains suspension samples were transferred using a fresh cotton swab. Results were measured by qualitatively reviewing the subsequent (if any) sizes of the zones of inhibition (ZOI) of indicator strain colony growth. A positive result is when there is a distinctive reduction or complete inhibition of indicator colony growth on the culture medium.
CABCa agar plates containing various concentrations of saccharide were prepared according to the methods described in Method 1. Producer strains were transferred from stock agar plates into 900 μL THB using a fresh cotton swab. A plastic spread plater was cut to approximately 1.2 cm width and then dipped into ethanol and left to air dry to ensure sterility. A 100 μL sample of the producer strain suspension was then dispensed onto the agar surface in a straight line running diametrically across the agar surface in (approximately) 20 μL spots. The spots were spaced approximately 1.5 cm apart from each other. The plastic spreader was then used to evenly distribute the spots across the agar surface in a 1.5 cm wide strip. This step was taken to ensure an even producer streak was inoculated onto the agar surface and provided an approximate measure of the initial inoculum concentration. Separate plastic spreaders were used for samples containing different producer strains. The samples were left to soak into the agar surface until there was no visible liquid remaining on the agar surface (approximately 20 minutes). Following producer streak preparations, the deferred antagonism assay protocol was followed as per Method 2. Results were recorded by measuring the size of the zone of inhibition (ZOI) in mm.
A dose response assay was carried out according to method 3 above, except a 1.2 cm streak was used. For the individual saccharide testing the pH of the producer streak was adjusted after the growth of producer to change the acidic conditions.

salA = assay: qPCR relative gene expression in K12 grown on CABCa agar; format: cell-based, S. salivarius K12
Method: Method: CABCa agar plates were prepared either with or without 2.5% w/w raffinose, 0.5% w/w galactose, combined 2.5% w/w raffinose and 0.5% w/w galactose, 0.5% w/w glucose or 2.5% w/w glucose by the addition of 0.5% (w/v) calcium carbonate to solid CAB agar in bottles and then melted by autoclaving at 110° C. for 10 mins. Once cooled, filter sterilised solutions of the saccharides or distilled water were added and mixed and then 20 ml pipetted into petri dishes.
A S. salivarius K12 raw ingredient suspension was prepared in PBS containing approx. 1×10^8cfu/ml. […] of this suspension was spread evenly onto control and test agar plates. Plates were incubated at 37° C. with 5% CO2 for approx, 19 hrs.
Bacterial growth from each plate was collected using a sterile cotton swab and resuspended into 1 ml PBS in a screw capped tube. The bacterial cells were then pelleted by centrifugation at 13,000 rpm for 1 minute at 4° C. The supernatant was removed, and the cell pellet was resuspended in 1 ml of TRIzol reagent. The bacterial cell suspension was transferred into a 2 ml screw-capped tube containing 0.1 mm Zirconia/silicon beads. These tubes were then vortexed for 5 minutes at the highest speed to bead beat the bacterial cells to lyse them. The tubes were placed on ice for 1 minute and then re-bead beated again on the vortex for 5 minutes. The tubes were then frozen at −20° C.
The cDNA samples from K12 raw ingredient grown on the CABCa control plates and CABCa supplemented with the various saccharides were then analysed by qPCR for the levels of gene expression of the following genes: salA, salB, salQ and ureC.
10 μl qPCR reactions were prepared containing 2 μl of cDNA, 5 μl SYBR green master mix, 0.5 μl forward primer, 0.5 μl reverse primer and nuclease free water up to 10 μl. The dilution of cDNA in each qPCR was optimised with each primer set.
qPCR method consisted of the following cycles: Hold Stage: 2 mins at 50° C. followed by 10 mins at 95° C.; PCR Stage: 15 secs at 95° C. followed by 1 min at 60° C.; Melt Curve Stage: 15 secs at 95° C. followed by 1 min at 60° C. followed by 15 secs at 95° C.
To analyse the relative expression levels the 2^−ΔΔCt method was used to determine the relative fold gene expression level comparing the different sugars to a CABCa plate control. The reference gene used for this analysis was gyrA.

[1] = system: indicator bacterial test strains; assay: Inhibitory activity of freeze dried raw ingredient powder, M18; format: cell-based; settings: galactose 0.5% w/w; raffinose 2.5% w/w; or combination
Method: (§1) Method: The amount of raffinose and galactose used was calculated based on the volume of the area of the producer streak, (which was calculated to be 4.25 g) to allow for the absorption of the saccharides into the agar. Based on this, amount of 0.021 g (i.e. 0.5% w/w galactose of 4.25 g agar volume) of galactose, 0.11 g (i.e 2.5% w/w) of raffinose and the combination of galactose (0.5% w/w) and raffinose (2.5% w/w) (0.13 g total) were weighed into sterile containers. K12 and/or M18 raw ingredient were suspended and diluted with sterile distilled water to a concentration of 1-2×10^6 cfu/100 μl. Then, […] of K12 only, M18 only, and K12±M18 suspensions were spread as a 1 cm streak down the middle of a CABCa agar plate using a sterile spreader. […] Bacterial growth was then removed using a microscope slide, and the pH of the agar in the producer streak area was measured and adjusted to pH 6.5-7.5 using 0.5M sodium carbonate (pH 11) before surface sterilizing the plates with chloroform vapour. […] Zones of inhibition for each test organism were then measured in mm using a ruler. The amount of raffinose and galactose to be used was calculated based on the volume of the area of the producer streak, (which was calculated to be 4.25 g) to allow for absorption into the agar.

[2] = system: indicator bacterial test strains; assay: Inhibitory activity of freeze dried raw ingredient powder, K12 and M18 combination; format: cell-based; settings: galactose 0.5% w/w; raffinose 2.5% w/w; or combination
Method: as §1

Row | Compound | change in zone of inhibition size M. catarrhalis TW1 (M. catarrhalis TW1; 1.5% (w/v) raffinose) | Zone of inhibition M. catarrhalis TW1 (M. catarrhalis TW1; Raffinose 1.7% wt) | Zone of inhibition M. catarrhalis TW1 (M. catarrhalis TW1; Raffinose 1.7% wt, pH adjusted) | Zone of inhibition M. catarrhalis TW1 (M. catarrhalis TW1; Raffinose 2.5% wt) | Zone of inhibition M. catarrhalis TW1 (M. catarrhalis TW1; Raffinose 2.5% wt, pH adjusted) | Zone of inhibition M. catarrhalis TW1 (M. catarrhalis TW1; Raffinose 3.3% wt) | Zone of inhibition M. catarrhalis TW1 (M. catarrhalis TW1; Raffinose 3.3% wt, pH adjusted) | Zone of inhibition M. catarrhalis TW1 (M. catarrhalis TW1; Raffinose 5% wt) | Zone of inhibition M. catarrhalis TW1 (M. catarrhalis TW1; Raffinose 5% wt, pH adjusted) | Zone of inhibition M. catarrhalis TW1 (M. catarrhalis TW1; Raffinose 10% wt) | Zone of inhibition M. catarrhalis TW1 (M. catarrhalis TW1; Raffinose 10% wt, pH adjusted) | increase in gene expression of salA relative to no sugar control (salA; 2.5% w/w sugar in CABCa agar) | inhibitory activity of freeze-dried raw ingredient powder of M18 [1] | inhibitory activity of freeze-dried raw ingredient powder of K12 and M18 combination [2] | increase in zone of inhibition M. catarrhalis TW1 (M. catarrhalis TW1; 1.0% (w/v) galactose) | increase in zone of inhibition M. catarrhalis TW1 (M. catarrhalis TW1; 1.5% (w/v) galactose) | increase in gene expression of salA relative to no sugar control (salA; 0.5% w/w sugar in CABCa agar)
1 | OC[C@H]1O[C@H](OC[C@H]2O[C@H](O[C@]3(CO)O[C@H](CO)[C@@H](O)[C@@H]3O)[C@H](O)[C@@H](O)[C@@H]2O)[C@H](O)[C@@H](O)[C@H]1O [Raffinose, D-(+) Raffinose pentahydrate] | 31 mm | 7 mm | 0 mm | 17 mm | 0 mm | 0 mm | 0 mm | 15 mm | 0 mm | 0 mm | 0 mm | ~5000 fold | induced the inhibitory activity | induced the inhibitory activity | – | – | –
2 | O=C[C@H](O)[C@@H](O)[C@@H](O)[C@H](O)CO [Galactose, D-galactose] | – | – | – | – | – | – | – | – | – | – | – | – | induced the inhibitory activity | induced the inhibitory activity | 12 mm | 23 mm | ~12000 fold
